pIC50: −log10 of the molar value.

The target in the experiment is T1, PI3Kγ (purified recombinant p101/p110γ protein) (Homo sapiens, UniProt P48736).
T1 construct: HA; made in house; host or cells: Spodoptera frugiperda Sf9 cells (baculovirus co-infection)
T1 sequence (P48736 whole entry, species assumed): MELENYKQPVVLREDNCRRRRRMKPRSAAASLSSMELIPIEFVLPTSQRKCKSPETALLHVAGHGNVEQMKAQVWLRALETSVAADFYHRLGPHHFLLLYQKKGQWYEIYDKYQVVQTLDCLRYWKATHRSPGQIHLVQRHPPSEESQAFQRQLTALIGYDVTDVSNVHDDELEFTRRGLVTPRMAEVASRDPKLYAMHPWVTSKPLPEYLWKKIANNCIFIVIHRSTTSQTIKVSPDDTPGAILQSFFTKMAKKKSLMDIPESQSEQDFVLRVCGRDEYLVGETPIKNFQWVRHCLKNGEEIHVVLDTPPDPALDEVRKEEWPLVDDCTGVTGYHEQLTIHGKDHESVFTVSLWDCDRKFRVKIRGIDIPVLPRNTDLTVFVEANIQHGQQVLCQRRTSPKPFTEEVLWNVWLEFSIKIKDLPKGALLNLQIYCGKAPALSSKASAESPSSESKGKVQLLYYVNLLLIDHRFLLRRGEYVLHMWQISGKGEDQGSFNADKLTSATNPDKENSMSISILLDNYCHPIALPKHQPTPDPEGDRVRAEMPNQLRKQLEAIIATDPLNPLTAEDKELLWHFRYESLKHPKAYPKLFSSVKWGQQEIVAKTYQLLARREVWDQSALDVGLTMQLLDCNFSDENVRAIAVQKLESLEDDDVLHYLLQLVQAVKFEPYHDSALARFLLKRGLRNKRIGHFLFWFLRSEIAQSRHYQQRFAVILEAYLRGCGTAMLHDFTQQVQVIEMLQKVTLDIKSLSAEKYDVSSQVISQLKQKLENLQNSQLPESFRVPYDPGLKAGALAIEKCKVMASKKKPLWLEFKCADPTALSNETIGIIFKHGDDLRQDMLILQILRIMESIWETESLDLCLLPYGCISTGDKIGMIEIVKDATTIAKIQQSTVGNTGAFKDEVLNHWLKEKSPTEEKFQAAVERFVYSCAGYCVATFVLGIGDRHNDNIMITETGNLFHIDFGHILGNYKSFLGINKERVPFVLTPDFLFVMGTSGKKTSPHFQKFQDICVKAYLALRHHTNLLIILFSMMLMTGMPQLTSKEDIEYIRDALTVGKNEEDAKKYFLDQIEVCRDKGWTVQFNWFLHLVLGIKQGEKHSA
T1 sequence (Q8WYR1 whole entry partner, species assumed): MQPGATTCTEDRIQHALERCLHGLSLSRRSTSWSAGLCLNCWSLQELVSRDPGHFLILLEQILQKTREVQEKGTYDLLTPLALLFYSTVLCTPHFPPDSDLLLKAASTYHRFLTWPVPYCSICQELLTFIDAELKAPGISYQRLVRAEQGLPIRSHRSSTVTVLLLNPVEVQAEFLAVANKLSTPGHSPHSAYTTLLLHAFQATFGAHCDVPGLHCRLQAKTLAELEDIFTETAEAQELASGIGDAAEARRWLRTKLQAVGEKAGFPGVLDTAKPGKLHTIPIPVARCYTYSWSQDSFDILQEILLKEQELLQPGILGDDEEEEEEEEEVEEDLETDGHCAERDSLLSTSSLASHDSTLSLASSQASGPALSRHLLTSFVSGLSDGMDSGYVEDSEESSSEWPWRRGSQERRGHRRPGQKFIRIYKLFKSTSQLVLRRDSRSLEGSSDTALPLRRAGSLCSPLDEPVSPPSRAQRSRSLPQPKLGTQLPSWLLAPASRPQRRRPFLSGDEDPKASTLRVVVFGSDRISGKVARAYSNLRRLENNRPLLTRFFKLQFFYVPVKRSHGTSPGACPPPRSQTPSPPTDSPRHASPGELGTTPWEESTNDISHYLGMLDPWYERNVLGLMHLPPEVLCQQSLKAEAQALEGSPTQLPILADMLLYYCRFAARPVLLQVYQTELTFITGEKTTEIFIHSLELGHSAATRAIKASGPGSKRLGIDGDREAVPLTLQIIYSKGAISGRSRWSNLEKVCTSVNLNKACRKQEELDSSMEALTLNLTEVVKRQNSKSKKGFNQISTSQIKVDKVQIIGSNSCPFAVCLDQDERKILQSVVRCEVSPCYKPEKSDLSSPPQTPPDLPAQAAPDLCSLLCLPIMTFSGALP
Kind of experiment: PI3Kγ In Vitro Kinase Assay. In kind it is biochemical. Particulars: final ATP 20 μM, 25 μM PIP2, G protein β1/γ2 subunits, 20 minutes at room temperature. The method, then: Spodtera frugiperda cells, grown in ESF921 media, were co-infected with baculovirus expressing a glu-tagged p101 and baculovirus expressing an HA-tagged p110γ, at a 3:1 ratio of p101 baculovirus to p110γ baculovirus. Sf9 cells were grown to 1×10^7 total cells/mL in 10 L bioreactors and harvested 48-72 hours post infection. Samples of infected cells were then tested for expression of p101/p110γ PI3 kinase by immunoprecipitation and Western Blot analysis methods (see below).
To purify PI3Kγ, 4 volumes of room temperature hypotonic lysis buffer (1 mM MgCl2, 1 mM DTT, 5 mM EGTA, 1 mM Pefabloc, 0.5 μM aprotinin, 5 μM leupeptin, 2 μM pepstatin, 5 μM E64, pH 8) per gram of cell paste, was poured onto frozen cell pellets with stirring, then lysed in a nitrogen “bomb” at 400 psi (599HC T316, Parr Instrument Co, Moline, Ill.). NaCl was added to 150 mM, and sodium cholate was added to 1% and mixed for another 45 minutes. The lysates were clarified by centrifugation for 25 minutes at 14,000 rpm. The lysates were then loaded over anti-glu-linked Protein-G Sepaharose beads (Covance Research Products, Richmond, Calif.) using 20 mL resin/50 g cell paste. The column was washed with 15 volumes of wash buffer (1 mM DTT, 0.2 mM EGTA, 1 mM Pefabloc, 0.5 μM aprotinin, 5 μM leupeptin, 2 μM pepstatin, 5 μM E64, 150 mM NaCl, 1% sodium cholate, pH 8). PI3Kγ was eluted with 6 column volumes of wash buffer that contain 100 μg/mL of a peptide that competes for binding of the glu tag. The column fractions with the eluted protein (determined by taking OD280 readings) were collected and dialyzed in 0.2 mM EGTA, 1 mM DTT, 1 mM Pefabloc, 5 μM leupeptin, 0.5% sodium cholate, 150 mM NaCl, and 50% glycerol, pH 8. The fractions were stored at −80° C. until further use.
Spodtera frugiperda cells were coinfected with baculovirus expressing a glu-tagged G protein β1 and baculovirus expressing a G protein β2, at a 1:1 ratio of glu-tagged G protein β1 baculovirus to G protein β2 baculovirus. Sf9 cells are grown in 10 L bioreactors and harvested 48-72 hours post infection. Samples of infected cells were tested for G protein β1/β2 expression by Western Blot analysis, as described below. Cell lysates were homogenized and loaded onto a column of glu-tagged beads as in Biological Example 1 and competed off the column with a glu peptide and processed as described in Biological Example 1.
The inhibitory properties of the compounds in Table 1 were assayed in an in vitro PI3K assay. In a 96-well polypropylene plate, each well was spotted with 2 μL of 50 times the desired final concentration of compound in DMSO. Purified recombinant p101/p110γ protein (0.03 μg; ˜2.7 nM) and G protein β1/γ2 subunits (0.09 μg; ˜57.7 nM) for each reaction was combined in the assay buffer (30 mM HEPES, 100 mM NaCl, 1 mM EGTA, and 1 mM DTT). ATP and [γ-^32P-ATP] (0.09 μCi) were added to this mixture so that the final ATP concentration in the reaction was 20 μM. Lipid micelles were formed by sonicating phosphatidylinositol-4,5-diphosphate (PIP2), phosphatidylethanolamine (PE), and Na-cholate in the assay buffer for 10 minutes, adding MgCl2 and incubating on ice for 20 minutes, for final concentrations of 25 μM PIP2, 300 μM PE, 0.02% Na-cholate, and 10 mM MgCl2 in the reaction. The reactions were started by adding equal volumes lipid and enzyme mixture in a total volume of 50 μL, allowed to run for 20 minutes at room temperature, and stopped with 100 μL 75 mM H3PO4. The lipid product was transferred to a glass fiber filter plate and washed with 75 mM H3PO4 several times. The presence of radioactive lipid product (PIP3) was measured by adding Wallac Optiphase mix to each well and counting in a Wallac 1450 Trilux plate reader (PerkinElmer Life Sciences Inc., Boston, Mass. 02118). The IC50 for each compound tested is reported in μM in the Table 2: […]
Regarding `CCc1nc(Nc2cc(C(=O)OC)n(C)c2)nc2c1ccc(=O)n2C1CCCCCC1` [Example 14, 4-(8-Cycloheptyl-4-ethyl-7-oxo-7,8-dihydro-pyrido[2,3-d]pyrimidin-2-ylamino)-1-methyl-1H-pyrrole-2-carboxylic acid methyl ester], the pIC50 was 5.84.

Consider `Cc1nc(Nc2cc(C(=O)O)n(C)c2)nc2c1cc(-c1cccc(OCc3ccccc3)c1)c(=O)n2Cc1ccc(F)cc1` [Example 35, 4-[6-(3-Benzyloxy-phenyl)-8-(4-fluoro-benzyl)-4-methyl-7-oxo-7,8-dihydro-pyrido[2,3-d]pyrimidin-2-ylamino]-1-methyl-1H-pyrrole-2-carboxylic acid], for which the pIC50 was 6.47.

On to `CCOC(=O)c1cc(Nc2nc(C)c3cc(F)c(=O)n(C4CCCC4)c3n2)cn1Cc1cccnc1` [Example 12, 4-(8-Cyclopentyl-6-fluoro-4-methyl-7-oxo-7,8-dihydro-pyrido[2,3-d]pyrimidin-2-ylamino)-1-pyridin-3-ylmethyl-1H-pyrrole-2-carboxylic acid ethyl ester], for which the pIC50 was 8.40.

Take `COc1ccc(Cn2c(=O)c(C)cc3c(C)nc(Nc4cc(C(=O)O)n(C)c4)nc32)cc1` [Example 36, 4-[8-(4-Methoxy-benzyl)-4,6-dimethyl-7-oxo-7,8-dihydro-pyrido[2,3-d]pyrimidin-2-ylamino]-1-methyl-1H-pyrrole-2-carboxylic acid]: the pIC50 is 7.33.

On to `Cc1nc(Nc2cc(C(=O)O)n(C(C)c3ccccc3)c2)nc2c1ccc(=O)n2C` (stereo not drawn) [Example 16, 4-(4,8-Dimethyl-7-oxo-7,8-dihydro-pyrido[2,3-d]pyrimidin-2-ylamino)-1-(1-phenyl-ethyl)-1H-pyrrole-2-carboxylic acid], for which the pIC50 is 6.83.

For `COC(=O)c1cc(Nc2nc(C)c3ccc(=O)n(C4CC4)c3n2)cn1C` [Example 3, 4-(8-Cyclopropyl-4-methyl-7-oxo-7,8-dihydro-pyrido[2,3-d]pyrimidin-2-ylamino)-1-methyl-1H-pyrrole-2-carboxylic acid methyl ester], the pIC50 is 7.74.

`Cc1nc(Nc2ccn(CC(=O)O)c2)nc2c1ccc(=O)n2C1CCCCCC1` [Example 23, [3-(8-Cycloheptyl-4-methyl-7-oxo-7,8-dihydro-pyrido[2,3-d]pyrimidin-2-ylamino)-pyrrol-1-yl]-acetic acid]: the pIC50 is 5.96.

With `CCOC(=O)c1cc(Nc2nc(C)c3ccc(=O)n(C)c3n2)cn1C(C)c1ccccc1` (stereo not drawn) [Example 2, 4-(4,8-Dimethyl-7-oxo-7,8-dihydro-pyrido[2,3-d]pyrimidin-2-ylamino)-1-(1-phenyl-ethyl)-1H-pyrrole-2-carboxylic acid ethyl ester], the pIC50 is 7.20.

On to `COC(=O)c1cc(Nc2nc(C)c3cc(Cl)c(=O)n(C4CCCC4)c3n2)cn1C` [Example 29, 4-(6-Chloro-8-cyclopentyl-4-methyl-7-oxo-7,8-dihydro-pyrido[2,3-d]pyrimidin-2-ylamino)-1-methyl-1H-pyrrole-2-carboxylic acid methyl ester], for which the negative-log IC50 (pIC50) is 8.22.

In the case of `CCc1nc(Nc2cc(C(=O)O)n(C)c2)nc2c1ccc(=O)n2C1CCCCCC1` [Example 20, 4-(8-Cycloheptyl-4-ethyl-7-oxo-7,8-dihydro-pyrido[2,3-d]pyrimidin-2-ylamino)-1-methyl-1H-pyrrole-2-carboxylic acid], the pIC50 was 5.80.

As for `COC(=O)c1cc(Nc2nc(C)c3ccc(=O)n(C4CCCCCC4)c3n2)cn1C` [Example 1, 4-(8-Cycloheptyl-4-methyl-7-oxo-7,8-dihydro-pyrido[2,3-d]pyrimidin-2-ylamino)-1-methyl-1H-pyrrole-2-carboxylic acid methyl ester], the pIC50 was 7.60.

As to `Cc1nc(Nc2cc(C(=O)O)n(C)c2)nc2c1cc(F)c(=O)n2CC1CCOCC1` [Example 26, 4-[6-Fluoro-4-methyl-7-oxo-8-(tetrahydro-pyran-4-ylmethyl)-7,8-dihydro-pyrido[2,3-d]pyrimidin-2-ylamino]-1-methyl-1H-pyrrole-2-carboxylic acid], the pIC50 is 7.60.

With `COC1CCC(n2c(=O)c(F)cc3c(C)nc(Nc4cc(C(=O)O)n(C)c4)nc32)CC1` (stereo not drawn) [Example 27, 4-[6-Fluoro-8-(4-methoxy-cyclohexyl)-4-methyl-7-oxo-7,8-dihydro-pyrido[2,3-d]pyrimidin-2-ylamino]-1-methyl-1H-pyrrole-2-carboxylic acid], the pIC50 was 7.72.

In the case of `COC(=O)c1cc(Nc2nc(C)c3ccc(=O)n(C4CCOCC4)c3n2)cn1C` [Example 5, 1-Methyl-4-[4-methyl-7-oxo-8-(tetrahydro-pyran-4-yl)-7,8-dihydro-pyrido[2,3-d]pyrimidin-2-ylamino]-1H-pyrrole-2-carboxylic acid methyl ester], the pIC50 was 7.62.

In the case of `COC(=O)c1cc(Nc2nc(C)c3ccc(=O)n(C4CCCCC4)c3n2)cn1C` [Example 6, 4-(8-Cyclohexyl-4-methyl-7-oxo-7,8-dihydro-pyrido[2,3-d]pyrimidin-2-ylamino)-1-methyl-1H-pyrrole-2-carboxylic acid methyl ester], the pIC50 is 8.40.

On to `Cc1nc(Nc2cc(C(=O)O)n(C)c2)nc2c1ccc(=O)n2C1CCCCC1` [Example 38, 4-[8-Cyclohexyl-4-methyl-7-oxo-7,8-dihydro-pyrido[2,3-d]pyrimidin-2-ylamino]-1-methyl-1H-pyrrole-2-carboxylic acid], for which the negative logarithm of the IC50 (pIC50) is 7.68.

Consider `Cc1nc(Nc2cc(C(=O)O)n(C)c2)nc2c1ccc(=O)n2C1CC1` [Example 18, 4-(8-Cyclopropyl-4-methyl-7-oxo-7,8-dihydro-pyrido[2,3-d]pyrimidin-2-ylamino)-1-methyl-1H-pyrrole-2-carboxylic acid], for which the pIC50 was 6.73.

Regarding `COC(=O)c1cc(Nc2nc(C)c3cc(F)c(=O)n(C4CCC(OC)CC4)c3n2)cn1C` (stereo not drawn) [Example 11, 4-[6-Fluoro-8-(4-methoxy-cyclohexyl)-4-methyl-7-oxo-7,8-dihydro-pyrido[2,3-d]pyrimidin-2-ylamino]-1-methyl-1H-pyrrole-2-carboxylic acid methyl ester], the pIC50 was 8.30.

For `COc1ccc(Cn2c(=O)c(Br)cc3c(C)nc(Nc4cc(C(=O)O)n(C)c4)nc32)cc1` [Example 33, 4-[6-Bromo-8-(4-methoxy-benzyl)-4-methyl-7-oxo-7,8-dihydro-pyrido[2,3-d]pyrimidin-2-ylamino]-1-methyl-1H-pyrrole-2-carboxylic acid], the pIC50 was 7.77.

On to `COC(=O)c1cc(Nc2nc(C)c3ccc(=O)n(C4CCC4)c3n2)cn1C` [Example 4, 4-(8-Cyclobutyl-4-methyl-7-oxo-7,8-dihydro-pyrido[2,3-d]pyrimidin-2-ylamino)-1-methyl-1H-pyrrole-2-carboxylic acid methyl ester], for which the pIC50 was 7.89.

In the case of `COC(=O)c1cc(Nc2nc(C)c3ccc(=O)n(CCC4CC4)c3n2)cn1C` [Example 8, 4-[8-(2-Cyclopropyl-ethyl)-4-methyl-7-oxo-7,8-dihydro-pyrido[2,3-d]pyrimidin-2-ylamino]-1-methyl-1H-pyrrole-2-carboxylic acid methyl ester], the pIC50 is 7.92.

(Values after US20080255162A1, “Pyrrolyl Substituted Pyrido[2,3-D]Pyrimidin-7-Ones and Derivatives Thereof as Therapeutic Agents” (WARNER-LAMBERT COMPANY LLC, priority 2004, published 2008).)
